PubChem BioAssay AID1963833 (Molecular Pharmacology Branch, DTP, NCI, 2024)

Test system: 883617-216-R-J1-PDC complex spheroid viability
Assay: Anticancer human tumor 883617-216-R-J1-PDC patient-derived bladder carcinoma cell line growth inhibition [POLQ]
Details: for IC50: curve of first compound; for viability, T/C: stronger effect = lower value
In short: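 Complex spheroid viability model combining PDC tumour cells with endothelial (HUVEC) and MSC stromal cells. Novobiocin, ART-558 or RP6685 were tested singly and in combination with standard and investigational anticancer drugs. Each was titrated in half-log steps from near clinical Cmax, or from 10 microM where Cmax was unknown.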

[1] = second compound 0.0316 µM, first compound 0.0316 µM
[2] = second compound 0.0316 µM, first compound 0.1 µM
[3] = second compound 0.0316 µM, first compound 0.316 µM
[4] = second compound 0.0316 µM, first compound 1 µM
[5] = second compound 0.0316 µM, first compound 3.16 µM
[6] = second compound 0.0316 µM, first compound 10 µM
[7] = second compound 0.1 µM, first compound 0.0316 µM
[8] = second compound 0.1 µM, first compound 0.1 µM
[9] = second compound 0.1 µM, first compound 0.316 µM
[10] = second compound 0.1 µM, first compound 1 µM
[11] = second compound 0.1 µM, first compound 3.16 µM
[12] = second compound 0.1 µM, first compound 10 µM
[13] = second compound 0.316 µM, first compound 0.0316 µM
[14] = second compound 0.316 µM, first compound 0.1 µM
[15] = second compound 0.316 µM, first compound 0.316 µM
[16] = second compound 0.316 µM, first compound 1 µM
[17] = second compound 0.316 µM, first compound 3.16 µM
[18] = second compound 0.316 µM, first compound 10 µM
[19] = second compound 1 µM, first compound 0.0316 µM
[20] = second compound 1 µM, first compound 0.1 µM
[21] = second compound 1 µM, first compound 0.316 µM
[22] = second compound 1 µM, first compound 1 µM
[23] = second compound 1 µM, first compound 3.16 µM
[24] = second compound 1 µM, first compound 10 µM
[25] = second compound 3.16 µM, first compound 0.0316 µM
[26] = second compound 3.16 µM, first compound 0.1 µM
[27] = second compound 3.16 µM, first compound 0.316 µM
[28] = second compound 3.16 µM, first compound 1 µM
[29] = second compound 3.16 µM, first compound 3.16 µM
[30] = second compound 3.16 µM, first compound 10 µM
[31] = second compound 10 µM, first compound 0.0316 µM
[32] = second compound 10 µM, first compound 0.1 µM
[33] = second compound 10 µM, first compound 0.316 µM
[34] = second compound 10 µM, first compound 1 µM
[35] = second compound 10 µM, first compound 3.16 µM
[36] = second compound 10 µM, first compound 10 µM
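Further: spheroids exposed to compounds for seven days before readout.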
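Wherever viability, T/C is given: 100% = DMSO vehicle control viability.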

## CC1COCCN1c1cc(C2(S(C)(=N)=O)CC2)nc(-c2ccnc3[nH]ccc23)n1 (stereo unspecified) + Cc1cccc(N(C)C(=O)C2C(O)CCN2c2nc(C)cc(C(F)(F)F)c2C#N)c1
Second compound 0.0316 µM
  IC50: 3300 nM
Second compound 0.1 µM
  IC50: 2860 nM
Second compound 0.316 µM
  IC50: 2750 nM
Second compound 1 µM
  IC50: 2760 nM
Second compound 3.16 µM
  IC50: 2870 nM
Second compound 10 µM
  IC50: 6000 nM
[1]
  viability, T/C: 97.7%
[2]
  viability, T/C: 91.2%
[3]
  viability, T/C: 92.8%
[4]
  viability, T/C: 77.5%
[5]
  viability, T/C: 50.9%
[6]
  viability, T/C: 30.8%
[7]
  viability, T/C: 102%
[8]
  viability, T/C: 89.9%
[9]
  viability, T/C: 87.7%
[10]
  viability, T/C: 65.2%
[11]
  viability, T/C: 48.6%
[12]
  viability, T/C: 36.1%
[13]
  viability, T/C: 88.2%
[14]
  viability, T/C: 96.4%
[15]
  viability, T/C: 94.7%
[16]
  viability, T/C: 77.8%
[17]
  viability, T/C: 46.6%
[18]
  viability, T/C: 38.6%
[19]
  viability, T/C: 108%
[20]
  viability, T/C: 93.5%
[21]
  viability, T/C: 84.3%
[22]
  viability, T/C: 68.4%
[23]
  viability, T/C: 43.9%
[24]
  viability, T/C: 37.2%
[25]
  viability, T/C: 105%
[26]
  viability, T/C: 94.1%
[27]
  viability, T/C: 93.1%
[28]
  viability, T/C: 65.8%
[29]
  viability, T/C: 50%
[30]
  viability, T/C: 38%
[31]
  viability, T/C: 119%
[32]
  viability, T/C: 91.4%
[33]
  viability, T/C: 112%
[34]
  viability, T/C: 74.4%
[35]
  viability, T/C: 67.6%
[36]
  viability, T/C: 37.8%

## CCCS(=O)(=O)Nc1ccc(F)c(C(=O)c2c[nH]c3ncc(-c4ccc(Cl)cc4)cc23)c1F + Cc1cccc(N(C)C(=O)C2C(O)CCN2c2nc(C)cc(C(F)(F)F)c2C#N)c1
Second compound 0.0316 µM
  IC50: > 10000 nM
Second compound 0.1 µM
  IC50: > 10000 nM
Second compound 0.316 µM
  IC50: > 10000 nM
Second compound 1 µM
  IC50: > 10000 nM
Second compound 3.16 µM
  IC50: > 10000 nM
Second compound 10 µM
  IC50: > 10000 nM
[1]
  viability, T/C: 89.5%
[2]
  viability, T/C: 93.6%
[3]
  viability, T/C: 99.3%
[4]
  viability, T/C: 104%
[5]
  viability, T/C: 83.7%
[6]
  viability, T/C: 56.8%
[7]
  viability, T/C: 105%
[8]
  viability, T/C: 94.3%
[9]
  viability, T/C: 97.2%
[10]
  viability, T/C: 90.4%
[11]
  viability, T/C: 93.9%
[12]
  viability, T/C: 55.5%
[13]
  viability, T/C: 86.9%
[14]
  viability, T/C: 114%
[15]
  viability, T/C: 98.4%
[16]
  viability, T/C: 87.2%
[17]
  viability, T/C: 80.6%
[18]
  viability, T/C: 64.3%
[19]
  viability, T/C: 97.4%
[20]
  viability, T/C: 91.4%
[21]
  viability, T/C: 92.7%
[22]
  viability, T/C: 93.8%
[23]
  viability, T/C: 92.9%
[24]
  viability, T/C: 51.7%
[25]
  viability, T/C: 116%
[26]
  viability, T/C: 97.3%
[27]
  viability, T/C: 106%
[28]
  viability, T/C: 108%
[29]
  viability, T/C: 89.2%
[30]
  viability, T/C: 55.7%
[31]
  viability, T/C: 98.2%
[32]
  viability, T/C: 97.2%
[33]
  viability, T/C: 104%
[34]
  viability, T/C: 102%
[35]
  viability, T/C: 100%
[36]
  viability, T/C: 61.3%

## CCc1c2c(nc3ccc(O)cc13)-c1cc3c(c(=O)n1C2)COC(=O)[C@]3(O)CC + Cc1cccc(N(C)C(=O)C2C(O)CCN2c2nc(C)cc(C(F)(F)F)c2C#N)c1
Second compound 0.0316 µM
  IC50: 101 nM
Second compound 0.1 µM
  IC50: 69.4 nM
Second compound 0.316 µM
  IC50: 84.7 nM
Second compound 1 µM
  IC50: 62.7 nM
Second compound 3.16 µM
  IC50: 59.9 nM
Second compound 10 µM
  IC50: 125 nM
Second compound 0.0316 µM, first compound 0.00316 µM
  viability, T/C: 59.4%
Second compound 0.0316 µM, first compound 0.01 µM
  viability, T/C: 58.6%
[1]
  viability, T/C: 52.8%
[2]
  viability, T/C: 52%
[3]
  viability, T/C: 34.2%
[4]
  viability, T/C: 21.2%
Second compound 0.1 µM, first compound 0.00316 µM
  viability, T/C: 71.4%
Second compound 0.1 µM, first compound 0.01 µM
  viability, T/C: 60.8%
[7]
  viability, T/C: 57.9%
[8]
  viability, T/C: 46.9%
[9]
  viability, T/C: 37.7%
[10]
  viability, T/C: 25%
Second compound 0.316 µM, first compound 0.00316 µM
  viability, T/C: 60.1%
Second compound 0.316 µM, first compound 0.01 µM
  viability, T/C: 66.2%
[13]
  viability, T/C: 55%
[14]
  viability, T/C: 49.6%
[15]
  viability, T/C: 32.6%
[16]
  viability, T/C: 17.6%
Second compound 1 µM, first compound 0.00316 µM
  viability, T/C: 65.1%
Second compound 1 µM, first compound 0.01 µM
  viability, T/C: 61.7%
[19]
  viability, T/C: 60.8%
[20]
  viability, T/C: 41.3%
[21]
  viability, T/C: 33.6%
[22]
  viability, T/C: 20.5%
Second compound 3.16 µM, first compound 0.00316 µM
  viability, T/C: 71.6%
Second compound 3.16 µM, first compound 0.01 µM
  viability, T/C: 59.7%
[25]
  viability, T/C: 54.8%
[26]
  viability, T/C: 45.3%
[27]
  viability, T/C: 40.6%
[28]
  viability, T/C: 22.4%
Second compound 10 µM, first compound 0.00316 µM
  viability, T/C: 79.8%
Second compound 10 µM, first compound 0.01 µM
  viability, T/C: 70.5%
[31]
  viability, T/C: 62.1%
[32]
  viability, T/C: 49.1%
[33]
  viability, T/C: 44.9%
[34]
  viability, T/C: 13.5%
